From patent US6756382B2, “Amide substituted imidazoquinolines” (3M Innovative Properties Company, priority 1999, dated 2004)

Columns and labels:
interferon (α) = test: Cytokine induction in human cells: interferon secreted by PBMCs, ELISA; type: cell-based; conditions: PBMC, incubated 18 to 24 hours, interferon determined by ELISA, read-out: Lowest Effective Concentration (μM) Interferon
Description: (§1) An in vitro human blood cell system was used to assess cytokine induction by compounds of the invention. Activity is based on the measurement of interferon and tumor necrosis factor (α) (IFN and TNF, respectively) secreted into culture media as described by Testerman et. al. In “Cytokine Induction by the Immunomodulators Imiquimod and S-27609”, Journal of Leukocyte Biology, 58, 365-372 (September, 1995).
(§2) Whole blood is collected by venipuncture into EDTA vacutainer tubes from healthy human donors. Peripheral blood mononuclear cells (PBMCs) are separated from whole blood by density gradient centrifugation using Histopaque®-1077 (Sigma Chemicals, St. Louis, Mo.). The PBMCs are suspended at 3-4×10^6 cells/mL in RPMI 1640 medium containing 10% fetal bovine serum, 2 mM L-glutamine and 1% penicillin/streptomycin solution (RPMI complete). The PBMC suspension is added to 48 well flat bottom sterile tissue culture plates (Costar, Cambridge, Mass. or Becton Dickinson Labware, Lincoln Park, N.J.) containing an equal volume of RPMI complete media containing test compound.
(§3) The compounds are solubilized in dimethyl sulfoxide (DMSO). The DMSO concentration should not exceed a final concentration of 1% for addition to the culture wells.
(§4) The solution of test compound is added at 60 μM to the first well containing RPMI complete and serial (three fold or ten fold) dilutions are made. The PBMC suspension is then added to the wells in an equal volume, bringing the test compound concentrations to the desired range. The final concentration of PBMC suspension is 1.5-2×10^6 cells/mL. The plates are covered with sterile plastic lids, mixed gently and then incubated for 18 to 24 hours at 37° C. in a 5% carbon dioxide atmosphere.
(§5) Following incubation the plates are centrifuged for 5-10 minutes at 1000 rpm (˜200×g) at 4° C. The cell culture supernatant is removed with a sterile polypropylene pipet and transferred to sterile polypropylene tubes. Samples are maintained at −30 to −70° C. until analysis. The samples are analyzed for interferon (α) by either ELISA or bioassay and for tumor necrosis factor (α) by ELISA.
Interferon (α) concentration is determined by ELISA using a Human Multi-Species kit from PBL Biomedical Laboratories, New Brunswick, N.J.
(§6) The table below lists the lowest concentration found to induce interferon and the lowest concentration found to induce tumor necrosis factor for each compound. […] Unless otherwise indicated, the interferon biosynthesis was determined by ELISA.

[1] = tested on: tumor necrosis factor (α); test: Cytokine induction in human cells: tumor necrosis factor (α) secreted by PBMCs, ELISA; type: cell-based; conditions: PBMC, incubated 18 to 24 hours, TNF determined by ELISA, read-out: Lowest Effective Concentration (μM) Tumor Necrosis Factor
Description: as §1, §2, §3, §4, §5
Tumor necrosis factor (α) (TNF)concentration is determined using ELISA kits available from Genzyme, Cambridge, Mass.; R&D Systems, Minneapolis, Minn.; or Pharmingen, San Diego, Calif.
as §6

melting point	Structure (SMILES)	minimal effective concentration (interferon (α)) [µM]	minimal effective concentration [1] [µM]
77 °C	Nc1nc2ccccc2c2c1ncn2CCCCNC(=O)[C@H]1C[C@@H]1c1ccccc1 (relative stereo) [Example 37, N^1-[4-(4-Amino-1H-imidazo[4,5-c]quinolin-1-yl)butyl]-(trans)-2-phenylcyclopropane-1-carboxamide]	0.37	> 30
254 to 256 °C	Nc1nc2ccccc2c2c1ncn2CCNC(=O)CCc1ccccc1 [Example 17, N^1-[2-(4-Amino-1H-imidazo[4,5-c]quinolin-1-yl)ethyl]-3-phenylpropanamide]	3.33	10
73 to 98 °C	Nc1nc2ccccc2c2c1ncn2CCCCNC(=O)COc1ccc(C(=O)c2ccccc2)cc1 [Example 18, N^1-[4-(4-Amino-1H-imidazo[4,5-c]quinolin-1-yl)butyl]-2-(4-benzoylphenoxy)acetamide]	3.33	> 30
150 to 157 °C	Nc1nc2ccccc2c2c1ncn2CCCCNC(=O)CCCCOc1ccc2[nH]c(=O)[nH]c2c1 [Example 19, N-[4-Amino-1H-imidazo[4,5-c]quinolin-1-yl]butyl-5-[(2-oxo-2,3-dihydro-1H-benzo[d]imidazol-5-yl)oxy]pentamide]	10	> 30
159 to 161 °C	Nc1nc2ccccc2c2c1ncn2CCCCNC(=O)c1ccc(C(=O)c2ccccc2)cc1 [Example 20, N^1-[4-(4-Amino-1H-imidazo[4,5-c]quinolin-1-yl)butyl]-4-benzoylbenzamide]	3.33	> 30
122 to 127 °C	Nc1nc2ccccc2c2c1ncn2CCCCNC(=O)c1ccc2ncccc2c1 [Example 21, N^6-[4-(4-Amino-1H-imidazo[4,5-c]quinolin-1-yl)butyl]-6-quinolinecarboxamide]	0.12	1.11
230 to 231.4 °C	Cc1nc2c(N)nc3ccccc3c2n1CCCNC(=O)c1ccccc1 [Example 22, N^1-[3-(4-Amino-2-methyl-1H-imidazo[4,5-c]quinolin-1-yl)propyl]benzamide]	0.37	10
146 to 155 °C	Nc1nc2ccccc2c2c1ncn2CCCCCCNC(=O)c1ccccc1 [Example 23, N^1-[6-(4-Amino-1H-imidazo[4,5-c]quinolin-1-yl)hexyl]benzamide]	1.11	> 30
214 to 215 °C	CCCCc1nc2c(N)nc3ccccc3c2n1CCCCNC(=O)CCCCC1SCC2NC(=O)NC21 (stereo not drawn) [Example 24, N^1-[4-(4-Amino-2-butyl-1H-imidazo[4,5-c]quinolin-1-yl)butyl]-5-(2-oxoperhydrothieno[3,4-d]imidazol-4-yl)pentanamide]	0.12	3.33
104 to 106 °C	Nc1nc2ccccc2c2c1ncn2CCCCNC(=O)CCCCC1SCC2NC(=O)NC21 (stereo not drawn) [Example 25, N^1-[4-(4-Amino-1H-imidazo[4,5-c]quinolin-1-yl)butyl]-5-(2-oxoperhydrothieno[3,4-d]imidazol-4-yl)pentanamide]	3.33	> 30
95 to 96 °C	CCCCc1nc2c(N)nc3ccccc3c2n1CCNC(=O)CCCCC1SCC2NC(=N)NC21 (stereo not drawn) [Example 26, N^1-[2-(4-Amino-2-butyl-1H-imidazo[4,5-c]quinolin-1-yl)ethyl]-5-(2-iminoperhydrothieno[3,4-d]imidazol-4-yl)pentanamide]	0.37	10
169 °C	Nc1nc2ccccc2c2c1ncn2CCNC(=O)CCCCC1SCC2NC(=O)NC21 (stereo not drawn) [Example 27, N^1-[2-(4-Amino-1H-imidazo[4,5-c]quinolin-1-yl)ethyl]-5-(2-oxoperhydrothieno[3,4-d]imidazol-4-yl)pentanamide]	> 30	> 30
124 to 126 °C	CCCCc1nc2c(N)nc3ccccc3c2n1CCNC(=O)CCCCC1SCC2NC(=O)NC21 (stereo not drawn) [Example 28, N^1-[2-(4-Amino-2-butyl-1H-imidazo[4,5-c]quinolin-1-yl)ethyl]-5-(2-oxoperhydrothieno[3,4-d]imidazol-4-yl)pentanamide]	0.12	> 30
219 °C (dec.)	CCOc1ccc2ccccc2c1C(=O)NCCCCn1cnc2c(N)nc3ccccc3c21 [Example 31, N^1-[4-(4-Amino-1H-imidazo[4,5-c]quinolin-1-yl)butyl]-2-ethoxy-1-naphthamide]	1.11	> 30

Continued, compound first:

Structure (SMILES)	melting point	minimal effective concentration (interferon (α)) [µM]	minimal effective concentration [1] [µM]
Nc1nc2ccccc2c2c1ncn2CCCCNC(=O)c1ccccc1 [Example 1, N^1-[4-(4-Amino-1H-imidazo[4,5-c]quinolin-1-yl)butyl]benzamide]	210 to 212 °C	0.37	10
CCCc1nc2c(N)nc3ccccc3c2n1CCCCNC(=O)c1ccccc1 [Example 3, N^1-[4-(4-Amino-2-propyl-1H-imidazo[4,5-c]quinolin-1-yl)butyl]benzamide]	173 to 174 °C	0.37	1.11
Nc1nc2ccccc2c2c1ncn2CCCCNC(=O)c1ccc(CCl)cc1 [Example 7, N^1-[4-(4-Amino-1H-imidazo[4,5-c]quinolin-1-yl)butyl]-4-(chloromethyl)benzamide]	240 to 300 °C (dec.)	1.11	> 30
Nc1nc2ccccc2c2c1ncn2CCCCNC(=O)c1ccc(Cn2c(N3CCCC3)nc3ccccc32)cc1 [Example 8, N^1-[4-(4-Amino-1H-imidazo[4,5-c]quinolin-1-yl)butyl]-4-[(2-tetrahydro-1H -1-pyrrolyl-1H-benzo[d]imidazol-1-yl)methyl]benzamide]	150 to 153 °C	0.04	> 30
Cc1nc2c(N)nc3ccccc3c2n1CCCCCNC(=O)c1ccccc1 [Example 9, N^1-[5-(4-Amino-2-methyl-1H-imidazo[4,5-c]quinolin-1-yl)pentyl]benzamide]	110 to 120 °C	0.37	3.33
Nc1nc2ccccc2c2c1ncn2CCCCNC(=O)c1ccc(N2CCOCC2)nc1 [Example 12, N^3-[4-(4-Amino-1H-imidazo[4,5-c]quinolin-1-yl)butyl]-6-morpholinonicotinamide]	160 to 170 °C (dec.)	3.33	> 30
Nc1nc2ccccc2c2c1ncn2CCNC(=O)c1ccccc1 [Example 13, N^1-[2-(4-Amino-1H-imidazo[4,5-c]quinolin-1-yl)ethyl]benzamide]	295 °C	1.11	3.33
Nc1nc2ccccc2c2c1ncn2CCCCNC(=O)c1ccccc1Oc1ccccc1 [Example 14, N^1-[4-(4-Amino-1H-imidazo[4,5-c]quinolin-1-yl)butyl]-2-phenoxybenzamide]	93 to 94 °C	3.33	> 30
Nc1nc2ccccc2c2c1ncn2CCCCNC(=O)c1cccc(C(=O)c2ccccc2)c1 [Example 15, N^1-[4-(4-Amino-1H-imidazo[4,5-c]quinolin-1-yl)butyl]-3-benzoylbenzamide]	103 to 105 °C	3.33	> 30
Nc1nc2ccccc2c2c1ncn2CCCCNC(=O)CCc1ccccc1 [Example 16, N^1-[4-(4-Amino-1H-imidazo[4,5-c]quinolin-1-yl)butyl]-3-phenylpropanamide]	148 to 150 °C	1.11	30
